Test results as given in patent publication US10160747B2, “Compounds and methods for kinase modulation, and indications therefor” (Plexxikon Inc., priority 2016, dated 2018).

biological target: T1, c-KIT (Homo sapiens, UniProt P10721); experiment: c-KIT recombinant enzyme kinase assay (AlphaScreen); type: biochemical; conditions: 100 ATP, 8 pt
T1 construct: purchased Millipore 14-559K
Method: In order to determine the effect of compounds on FLT3 catalytic activity, kinase assays using recombinant enzymes and AlphaScreen® technology have been established. The catalytic activity of c-kit activity was also measured to determine selectivity of the compounds. When the kinases are catalytically active, they phosphorylate a biotinylated peptide substrate on tyrosine residues. Using AlphaScreen® technology, the ability of the compounds to affect the catalytic activity of the kinases can be measured quantitatively. The peptide substrate is immobilized by the AlphaScreen® Streptavidin Donor beads and, upon phosphorylation by a tyrosine kinase, can bind to AlphaScreen® Anti-Phosphotyrosine (PY20) Acceptor beads. Upon excitation of these beads with laser light at 680 nm, singlet oxygen is produced. This singlet oxygen is rapidly quenched, unless the AlphaScreen® Anti-Phosphotyrosine (PY20) Acceptor beads are in close proximity, in which case a proximity signal can be measured at 580 nm. In the presence of catalytic activity, there is a very strong proximity signal. Selective kinase inhibitors affect a decrease in this proximity signal through a decrease in tyrosine phosphorylation of the peptide substrate.
The assay was performed as summarized below.
Poly (Glu4-Tyr) Peptide, biotin conjugate [Biotin-GG(EEEEY)10EE] (SEQ ID NO: 4)
Final concentration=30 nM
Adenosine Triphosphate (ATP)
Final concentration for IC50 determination=10 μM (FLT3-D835Y or FLT3-ITD) or 100 μM (c-KIT)
AlphaScreen® Phosphotyrosine (PY20) Assay Kit
Final concentration=10 μg/mL
Dilute compounds in DMSO to 20× final concentration.
Add 1 μL of compound to each well of 384 well reaction plate (Perkin Elmer #6005359).
Mix enzyme and Poly (Glu4-Tyr) Peptide substrate at 1.33× final concentration in assay buffer.
Mix ATP at 5× final concentration in assay buffer.
Add 15 μL enzyme/substrate mixture to the reaction plate.
Add 4 μL of ATP to the reaction plate.
Mix Streptavidin Donor beads at 6× final concentration in Stop/Detection buffer.
Add 5 μL Streptavidin Donor beads to the reaction plate. Centrifuge 1 minute, shake to mix, and incubate at room temperature for 20 minutes.
Mix Anti-Phosphotyrosine (PY20) Acceptor beads at 6× final concentration in Stop/Detection buffer.
Add 5 μL Anti-Phosphotyrosine (PY20) beads to the reaction plate.
Centrifuge 1 minute, shake to mix, and incubate at room temperature for 60 minutes.
Read plate on Wallac EnVision™ 2103 Multilabel Reader.

T1 sequence (P10721 26-976): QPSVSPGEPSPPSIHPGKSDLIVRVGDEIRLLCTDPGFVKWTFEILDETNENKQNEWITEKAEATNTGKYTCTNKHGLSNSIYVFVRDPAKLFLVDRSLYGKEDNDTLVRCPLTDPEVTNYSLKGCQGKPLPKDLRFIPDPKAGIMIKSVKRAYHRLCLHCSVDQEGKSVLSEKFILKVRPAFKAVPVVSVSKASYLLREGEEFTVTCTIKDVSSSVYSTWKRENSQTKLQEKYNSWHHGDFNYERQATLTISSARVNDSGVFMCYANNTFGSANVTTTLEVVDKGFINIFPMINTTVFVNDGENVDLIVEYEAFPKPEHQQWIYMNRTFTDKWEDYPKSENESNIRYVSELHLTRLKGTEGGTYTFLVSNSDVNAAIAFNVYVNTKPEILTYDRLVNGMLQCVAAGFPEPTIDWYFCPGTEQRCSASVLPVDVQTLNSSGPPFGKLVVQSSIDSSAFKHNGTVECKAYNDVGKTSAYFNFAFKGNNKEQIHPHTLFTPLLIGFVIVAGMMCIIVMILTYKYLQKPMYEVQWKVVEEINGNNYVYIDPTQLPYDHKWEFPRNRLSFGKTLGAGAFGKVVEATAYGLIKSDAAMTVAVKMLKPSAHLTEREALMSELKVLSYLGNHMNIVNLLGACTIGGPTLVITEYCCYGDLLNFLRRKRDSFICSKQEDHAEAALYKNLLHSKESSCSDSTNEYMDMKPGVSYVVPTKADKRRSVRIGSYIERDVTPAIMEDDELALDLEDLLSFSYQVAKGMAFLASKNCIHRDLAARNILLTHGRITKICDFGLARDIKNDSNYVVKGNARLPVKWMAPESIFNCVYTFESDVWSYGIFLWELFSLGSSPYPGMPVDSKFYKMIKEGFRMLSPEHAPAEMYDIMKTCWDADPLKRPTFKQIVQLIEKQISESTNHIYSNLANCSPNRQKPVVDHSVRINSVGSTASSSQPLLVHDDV

**Q.** For COc1ncc(NC(=O)Cc2ccc(-c3cnc(Nc4cnn(C)c4)nc3)cc2)cc1C(F)(F)F [Compound P-0138, N-[6-methoxy-5-(trifluoromethyl)-3-pyridyl]-2-[4-[2-[(1-methylpyrazol-4-yl)amino]pyrimidin-5-yl]phenyl]acetamide], which IC50 is on record?
**A.** The IC50 was 0.0001 to 10 µM.

**Q.** For Cn1cc(Nc2ncc(-c3ccc(CC(=O)Nc4cc(C(F)(F)F)ccn4)cc3)cn2)cn1 [Compound P-0139, 2-[4-[2-[(1-methylpyrazol-4-yl)amino]pyrimidin-5-yl]phenyl]-N-[4-(trifluoromethyl)-2-pyridyl]acetamide], which IC50 is on record?
**A.** Its IC50 is 0.0001 to 10 µM.

**Q.** Cc1ncc(NC(=O)Cc2ccc(-c3cnc(Nc4cnn(C)c4)nc3)cc2)cc1C(F)(F)F [Compound P-0140, 2-[4-[2-[(1-methylpyrazol-4-yl)amino]pyrimidin-5-yl]phenyl]-N-[6-methyl-5-(trifluoromethyl)-3-pyridyl]acetamide] was tested. Which IC50 did it give?
**A.** The IC50 was 0.0001 to 10 µM.

**Q.** Cn1cc(Nc2ncc(-c3ccc(CC(=O)Nc4cccc(C(F)(F)F)c4)cc3)cn2)cn1 [Compound P-0141, 2-[4-[2-[(1-methylpyrazol-4-yl)amino]pyrimidin-5-yl]phenyl]-N-[3-(trifluoromethyl)phenyl]acetamide] was tested. Which IC50 did it give?
**A.** The IC50 was 0.0001 to 10 µM.

**Q.** Which IC50 does the source give for Cn1cc(Nc2ncc(-c3ccc(CC(=O)Nc4ccc(C(F)(F)F)c(F)c4)cc3)cn2)cn1 [Compound P-0142, N-[3-fluoro-4-(trifluoromethyl)phenyl]-2-[4-[2-[(1-methylpyrazol-4-yl)amino]pyrimidin-5-yl]phenyl]acetamide] here?
**A.** The IC50 was 0.0001 to 10 µM.

**Q.** How did the IC50 turn out when Cn1cc(Nc2ncc(-c3ccc(CC(=O)Nc4ccc(C(C)(C)C)nc4)cc3)cn2)cn1 [Compound P-0143, N-(6-tert-butyl-3-pyridyl)-2-[4-[2-[(1-methylpyrazol-4-yl)amino]pyrimidin-5-yl]phenyl]acetamide] was run?
**A.** Its IC50 is 0.0001 to 10 µM.

**Q.** Cn1cc(Nc2ncc(-c3ccc(CC(=O)Nc4cncc(C(C)(F)F)c4)cc3)cn2)cn1 [Compound P-0144, N-[5-(1,1-difluoroethyl)-3-pyridyl]-2-[4-[2-[(1-methylpyrazol-4-yl)amino]pyrimidin-5-yl]phenyl]acetamide] was tested. Which IC50 did it give?
**A.** The IC50 was 0.0001 to 10 µM.

**Q.** For Cn1cc(Nc2ncc(-c3ccc(CC(=O)Nc4cnc(Cl)c(C(F)(F)F)c4)cc3)cn2)cn1 [Compound P-0145, N-[6-chloro-5-(trifluoromethyl)-3-pyridyl]-2-[4-[2-[(1-methylpyrazol-4-yl)amino]pyrimidin-5-yl]phenyl]acetamide], which IC50 is on record?
**A.** Its IC50 is 0.0001 to 10 µM.

**Q.** For Cn1cc(Nc2ncc(-c3ccc(CC(=O)Nc4ccc(C(C)(C)C#N)nc4)cc3)cn2)cn1 [Compound P-0146, N-[6-(1-cyano-1-methyl-ethyl)-3-pyridyl]-2-[4-[2-[(1-methylpyrazol-4-yl)amino]pyrimidin-5-yl]phenyl]acetamide], which IC50 is on record?
**A.** The IC50 was 0.0001 to 10 µM.

**Q.** Which IC50 does the source give for COc1ncc(NC(=O)Cc2ccc(-c3cnc(Nc4cn(C)cn4)nc3)cc2)cc1C(F)(F)F [Compound P-0149, N-[6-methoxy-5-(trifluoromethyl)-3-pyridyl]-2-[4-[2-[(1-methylimidazol-4-yl)amino]pyrimidin-5-yl]phenyl]acetamide] here?
**A.** The IC50 was 0.0001 to 10 µM.

**Q.** For Cc1ncc(NC(=O)Cc2ccc(-c3cnc(Nc4cn(C)cn4)nc3)cc2)cc1C(F)(F)F [Compound P-0150, 2-[4-[2-[(1-methylimidazol-4-yl)amino]pyrimidin-5-yl]phenyl]-N-[6-methyl-5-(trifluoromethyl)-3-pyridyl]acetamide], which IC50 is on record?
**A.** Its IC50 is 0.0001 to 10 µM.

**Q.** With Cn1cc(Nc2ncc(-c3ccc(CC(=O)Nc4cnnc(Cl)c4)cc3)cn2)cn1 [Compound P-0151, N-(6-chloropyridazin-4-yl)-2-[4-[2-[(1-methylpyrazol-4-yl)amino]pyrimidin-5-yl]phenyl]acetamide] as the compound, how does the IC50 read?
**A.** Its IC50 is 0.0001 to 10 µM.

**Q.** With Cn1cc(Nc2ncc(-c3ccc(CC(=O)Nc4cccc(C(F)(F)F)n4)cc3)cn2)cn1 [Compound P-0152, 2-[4-[2-[(1-methylpyrazol-4-yl)amino]pyrimidin-5-yl]phenyl]-N-[6-(trifluoromethyl)-2-pyridyl]acetamide] as the compound, how does the IC50 read?
**A.** Its IC50 is 0.0001 to 10 µM.

**Q.** Which IC50 does the source give for COc1cc(NC(=O)Cc2ccc(-c3cnc(Nc4cnn(C)c4)nc3)cc2)ccn1 [Compound P-0153, N-(2-methoxy-4-pyridyl)-2-[4-[2-[(1-methylpyrazol-4-yl)amino]pyrimidin-5-yl]phenyl]acetamide] here?
**A.** Its IC50 is 0.0001 to 10 µM.

**Q.** Cn1cc(Nc2ncc(-c3ccc(CC(=O)Nc4ccnc(S(C)(=O)=O)c4)cc3)cn2)cn1 [Compound P-0154, 2-[4-[2-[(1-methylpyrazol-4-yl)amino]pyrimidin-5-yl]phenyl]-N-(2-methylsulfonyl-4-pyridyl)acetamide] was tested. Which IC50 did it give?
**A.** Its IC50 is 0.0001 to 10 µM.

**Q.** With Cn1cc(Nc2ncc(-c3ccc(CC(=O)Nc4cccc(S(C)(=O)=O)c4)cc3)cn2)cn1 [Compound P-0155, 2-[4-[2-[(1-methylpyrazol-4-yl)amino]pyrimidin-5-yl]phenyl]-N-(3-methylsulfonylphenyl)acetamide] as the compound, how does the IC50 read?
**A.** The IC50 was 0.0001 to 10 µM.

**Q.** How did the IC50 turn out when Cn1cc(Nc2ncc(-c3ccc(CC(=O)Nc4ccc(S(C)(=O)=O)cc4)cc3)cn2)cn1 [Compound P-0156, 2-[4-[2-[(1-methylpyrazol-4-yl)amino]pyrimidin-5-yl]phenyl]-N-(4-methylsulfonylphenyl)acetamide] was run?
**A.** The IC50 was 0.0001 to 10 µM.

**Q.** Which IC50 does the source give for Cn1cc(Nc2ncc(-c3ccc(CC(=O)Nc4cccc(OC(F)(F)F)c4)cc3)cn2)cn1 [Compound P-0157, 2-[4-[2-[(1-methylpyrazol-4-yl)amino]pyrimidin-5-yl]phenyl]-N-[3-(trifluoromethoxy)phenyl]acetamide] here?
**A.** The IC50 was 0.0001 to 10 µM.

**Q.** Cn1cc(Nc2ncc(-c3ccc(CC(=O)Nc4cccc(C(C)(C)C#N)c4)cc3)cn2)cn1 [Compound P-0158, N-[3-(1-cyano-1-methyl-ethyl)phenyl]-2-[4-[2-[(1-methylpyrazol-4-yl)amino]pyrimidin-5-yl]phenyl]acetamide] was tested. Which IC50 did it give?
**A.** Its IC50 is 0.0001 to 10 µM.

**Q.** Which IC50 does the source give for Cn1cc(Nc2ncc(-c3ccc(CC(=O)NCc4ncccc4C(F)(F)F)cc3)cn2)cn1 [Compound P-0159, 2-[4-[2-[(1-methylpyrazol-4-yl)amino]pyrimidin-5-yl]phenyl]-N-[[3-(trifluoromethyl)-2-pyridyl]methyl]acetamide] here?
**A.** The IC50 was 0.0001 to 10 µM.

**Q.** Which IC50 does the source give for COc1ccccc1CNC(=O)Cc1ccc(-c2cnc(Nc3cnn(C)c3)nc2)cc1 [Compound P-0160, N-[(2-methoxyphenyl)methyl]-2-[4-[2-[(1-methylpyrazol-4-yl)amino]pyrimidin-5-yl]phenyl]acetamide] here?
**A.** Its IC50 is 0.0001 to 10 µM.

**Q.** Cn1cc(Nc2ncc(-c3ccc(CC(=O)NCc4cncc(C(F)(F)F)c4)cc3)cn2)cn1 [Compound P-0161, 2-[4-[2-[(1-methylpyrazol-4-yl)amino]pyrimidin-5-yl]phenyl]-N-[[5-(trifluoromethyl)-3-pyridyl]methyl]acetamide] was tested. Which IC50 did it give?
**A.** The IC50 was 0.0001 to 10 µM.

**Q.** Which IC50 does the source give for CCn1cc(Nc2ncc(-c3ccc(CC(=O)Nc4cnc(Cl)c(C(F)(F)F)c4)cc3)cn2)cn1 [Compound P-0165, N-[6-chloro-5-(trifluoromethyl)-3-pyridyl]-2-[4-[2-[(1-ethylpyrazol-4-yl)amino]pyrimidin-5-yl]phenyl]acetamide] here?
**A.** Its IC50 is 0.0001 to 10 µM.

**Q.** With CCn1cc(Nc2ncc(-c3ccc(CC(=O)Nc4cncc(C(F)(F)F)c4)cc3)cn2)cn1 [Compound P-0166, 2-[4-[2-[(1-ethylpyrazol-4-yl)amino]pyrimidin-5-yl]phenyl]-N-[5-(trifluoromethyl)-3-pyridyl]acetamide] as the compound, how does the IC50 read?
**A.** The IC50 was 0.0001 to 10 µM.

**Q.** Which IC50 does the source give for Cn1cnc(Nc2ncc(-c3ccc(CC(=O)Nc4cncc(C(F)(F)F)c4)cc3)cn2)c1 [Compound P-0167] here?
**A.** The IC50 was 0.0001 to 10 µM.
